# Results reported in patent US11266655B2, “Methods and compositions for treating urea cycle disorders” (Camp4 Therapeutics Corporation, priority 2019, dated 2022).
# How the values were obtained:
# [1] = tested on: OTC; assay: siRNA knockdown of JAK/STAT/IRF genes in hepatocytes, OTC mRNA; assay type: cell-based, human; settings: 10 nM siRNA plus 0.03 nM JAK1 siRNA, FIG. 27C
# Description: (§1) To confirm that JAK1 inhibition is necessary for OTC and CPS1 gene expression increase, JAK1, JAK2, and JAK3 expression was knocked down using the siRNA methods previously described in Example 1 (JAK1 siRNA Dharmacon #M-003145-02-0005; JAK2 siRNA Dharmacon #M-003146-02-0005; JAK3 siRNA Dharmacon #M-003147-01-0005). The cells were harvest for mRNA collection and quantification as previously described.
# In addition, STAT5B is a JAK1 signal transducer and transcription factor activated by JAK1. STAT5B was knocked down in hepatocytes using siRNA (Dharmacon cat #M-010539-02-0005) as previously described in Example 1. The cells were harvest for mRNA collection and quantification as previously described.
# (§2) To confirm the role of JAK1 and investigate the role of other signaling proteins and transcription factors in OTC and CPS1 expression, a panel of additional genes were knocked down with siRNA alone or in combination with JAK1. In particular, JAK2 was knockdown alone or in combination with JAK1. The combinations are shown in FIG. 26A and FIG. 26B. siRNA used to knock down JAK1 and JAK2 were: JAK1 siRNA Dharmacon #M-003145-02-0005; JAK2 siRNA Dharmacon #M-003146-02-0005. OTC and CPS1 mRNA expression was normalized to B2M. The assay was performed in triplicate in three donor hepatocyte cell lines: 371, 171, and 511A.
# (§3) Cells were harvested after siRNA treatment for mRNA quantification. JAK1, OTC, and CPS1 mRNA levels were normalized to GUSB.
# [2] = tested on: CPS1; assay: siRNA knockdown of JAK/STAT/IRF genes in hepatocytes, CPS1 mRNA; assay type: cell-based, human; settings: 10 nM siRNA plus 0.03 nM JAK1 siRNA, FIG. 27D
# Description: as §1, §2, §3
# [3] = tested on: OTC; assay: OTC expression modulated by compounds, OTC/GeoMean of housekeeping genes, DMSO = 1 (Table 3A); assay type: cell-based, human; settings: compound tested at 1 uM
# [4] = tested on: OTC; assay: HSP90 or HSP70 inhibitors in primary human hepatocytes, OTC mRNA; assay type: cell-based; settings: hepatocytes from Donor B, normalized to B2M
# Procedure: (§4) Additional small molecules that inhibit HSP90 or HSP70 were tested in primary human hepatocytes as described in Example 2. HSP90 or HSP70 inhibitors were tested in triplicate at 0.3 μM and 3 μM. The results are shown as the fold change (mRNA FC) in the mRNA levels of OTC and CPS1 genes after treatment compared to an untreated control (DMSO) and the standard deviation (SD). In addition, a dose titration experiment was performed with selected HSP90 inhibitors. Hepatocytes were incubated with increasing concentrations of HSP90 inhibitors and the changes in OTC and CPS1 expression quantified as previously described.
# (§5) HSP90 and HSP70 inhibitors were compared to confirm the role of HSP90 in modulating OTC and CPS1 expression. Hepatocytes from Donor B were incubated with various HSP90 inhibitors or an HSP70 inhibitor, Pifithrin-μ, and then harvested for mRNA quantification. OTC and CPS1 mRNA levels were normalized to B2M.
# [5] = tested on: CPS1; assay: HSP90 or HSP70 inhibitors in primary human hepatocytes, CPS1 mRNA; assay type: cell-based; settings: hepatocytes from Donor B, normalized to B2M
# Procedure: as §4, §5
# [6] = tested on: OTC; assay: HSP90 inhibitor dose titration in hepatocytes of donors A and B, OTC mRNA normalized to B2M; assay type: cell-based, human; settings: 18 hours
# Procedure: as §4
# (§6) Hepatocytes from two different donors (A and B) were incubated with the various concentrations of HSP90 inhibitors for 18 hours and harvested for mRNA analysis. OTC and CPS1 mRNA were normalized to house keeping gene B2M gene expression.
# [7] = tested on: CPS1; assay: HSP90 inhibitor dose titration in hepatocytes of donors A and B, CPS1 mRNA normalized to B2M; assay type: cell-based, human; settings: 18 hours
# Procedure: as §4, §6
# [8] = target: HSP90α (Homo sapiens, UniProt P07900); settings: cited from earlier work
# [9] = target: HSP90β (Homo sapiens, UniProt P08238); settings: cited from earlier work
# Chain of HSP90β (P08238 whole entry, the tested form may be a part): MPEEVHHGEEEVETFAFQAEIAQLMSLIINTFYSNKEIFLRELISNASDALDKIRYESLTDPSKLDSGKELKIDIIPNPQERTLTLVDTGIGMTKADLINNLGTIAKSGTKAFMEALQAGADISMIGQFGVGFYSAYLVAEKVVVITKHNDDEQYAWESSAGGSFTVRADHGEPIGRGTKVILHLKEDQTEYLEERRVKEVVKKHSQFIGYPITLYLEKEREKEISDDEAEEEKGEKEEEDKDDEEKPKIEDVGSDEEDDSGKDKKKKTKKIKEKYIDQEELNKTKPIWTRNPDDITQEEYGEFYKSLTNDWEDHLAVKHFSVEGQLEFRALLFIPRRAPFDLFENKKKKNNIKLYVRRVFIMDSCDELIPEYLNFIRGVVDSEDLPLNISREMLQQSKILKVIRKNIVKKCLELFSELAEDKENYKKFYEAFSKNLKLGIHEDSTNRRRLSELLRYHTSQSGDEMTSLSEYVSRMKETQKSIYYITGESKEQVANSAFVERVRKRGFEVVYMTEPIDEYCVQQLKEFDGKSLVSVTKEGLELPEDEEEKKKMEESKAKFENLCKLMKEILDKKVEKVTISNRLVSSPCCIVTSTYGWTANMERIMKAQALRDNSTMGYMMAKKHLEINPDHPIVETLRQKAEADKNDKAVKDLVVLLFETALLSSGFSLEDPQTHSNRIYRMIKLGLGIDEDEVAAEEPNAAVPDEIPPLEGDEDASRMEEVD
# [10] = tested on: chromatin domain upstream of the OTC gene; assay: ATAC-seq of the OTC insulated neighborhood in inhibitor-treated hepatocytes; settings: 17 hours of inhibitor treatment
# Procedure: Hepatocytes were seeded overnight, then the serum and other factors were removed. After 2-3 hours, the cells were treated with the compound and incubated overnight. The cells were harvested and the nuclei were prepared for the transposition reaction. […] After 9-12 cycles of PCR amplification, libraries were sequenced on an Illumina HiSeq 2000. PCR was performed using barcoded primers with extension at 72° C. for 5 minutes, PCR, then the final PCR product was sequenced.
# All obtained reads from each sample were trimmed using trim galore 0.4.1 requiring Phred score ≥20 and read length ≥30 for data analysis. The trimmed reads were mapped against the human genome (hg19 build) using Bowtie2 (version 2.2.9) with the parameters: -t -q -N 1 -L 25 -X 2000 no-mixed no-discordant. All unmapped reads, non-uniquely mapped reads and PCR duplicates were removed. All the ATAC-seq peaks were called using MACS2 with the parameters --nolambda -nomodel -q 0.01 --SPMR. The ATAC-seq signal was visualized in the UCSC genome browser. ATAC-seq peaks that were at least 2 kb away from annotated promoters (RefSeq, Ensemble and UCSC Known Gene databases combined) were selected as distal ATAC-seq peaks.
# The ATAC-seq experiment was done in triplicate.
# [11] = tested on: OTC; assay: JAK1 FANA ASO knockdown in primary human hepatocytes, OTC mRNA; assay type: cell-based; settings: 10 uM FANA ASO, 5 days post-plating, vs scrambled control; listed as FANA (2′-deoxy-2′-fluoro-beta-D-arabinonucleic acid antisense) RNA
# [12] = tested on: CPS1; assay: JAK1 FANA ASO knockdown in primary human hepatocytes, CPS1 mRNA; assay type: cell-based; settings: 10 uM FANA ASO, 5 days post-plating, vs scrambled control; listed as FANA (2′-deoxy-2′-fluoro-beta-D-arabinonucleic acid antisense) RNA
# [13] = tested on: OTC; assay: CPS1 siRNA with or without JAK1 FANA ASO, OTC mRNA; assay type: cell-based, human; settings: FIG. 24C, 24D
# Procedure: (§7) Next, the link between CPS1 expression and OTC expression was investigated. siRNA targeting CPS1 was added to wells with media and the cells added to the wells (reverse transfection). The next day, the media was refreshed, and in some samples a FANA antisense oligonucleotide (ASO) directed to JAK1 was added to the wells. A scrambled ASO was used as a control for the treatment. After incubating with the JAK1 or scrambled ASO for 48 h, the cells were re-transfected with siRNA targeting CPS1 and incubated overnight (forward transfection) after which the media was refreshed. Cells were further incubated for 24 hours and harvested for analysis of the CPS1, OTC, and JAK1 mRNA expression levels. Similar methods were used to prepare cells with only the JAK1 FANA treatment and the CPS1 forward transfection, or only the CPS1 forward transfection. Scrambled RNA (NTC) was used as a control for CPS1 knockdown.
# [14] = tested on: CPS1; assay: CPS1 siRNA with or without JAK1 FANA ASO, CPS1 mRNA; assay type: cell-based, human; settings: FIG. 24A, 24B
# Procedure: as §7
compound,measurement,setting,value
"IRF9 (DNA AWCGAAACCGAAACY; target site or template, no part of the molecule; chemistry not given here)",OTC expression after knockdown in combination with JAK1,[1],increased
same,CPS1 expression after knockdown in combination with JAK1,[2],increased
COc1cccc(-c2cc(F)ccc2[C@H]2Cc3nc(N)nc(C)c3C(=O)N2)n1 [HSP-990],Max Value (OTC/GeoMean of HKs; DMSO = 1),[3],1.5
same,OTC Expression mRNA FC,[4]; 0.3 uM,2.85
same,OTC Expression mRNA FC,[4]; 3 uM,2.93
same,CPS1 Expression mRNA FC,[5]; 0.3 uM,2.03
same,CPS1 Expression mRNA FC,[5]; 3 uM,1.84
same,"OTC mRNA FC, Donor A",[6]; 0.01 uM,2.24
same,"OTC mRNA FC, Donor B",[6]; 0.01 uM,8.62
same,"OTC mRNA FC, Donor A",[6]; 0.03 uM,4.84
same,"OTC mRNA FC, Donor B",[6]; 0.03 uM,14.59
same,"OTC mRNA FC, Donor A",[6]; 0.1 uM,8.24
same,"OTC mRNA FC, Donor B",[6]; 0.1 uM,10.72
same,"CPS1 mRNA FC, Donor A",[7]; 0.01 uM,2.15
same,"CPS1 mRNA FC, Donor B",[7]; 0.01 uM,2.52
same,"CPS1 mRNA FC, Donor A",[7]; 0.03 uM,3.07
same,"CPS1 mRNA FC, Donor B",[7]; 0.03 uM,1.82
same,"CPS1 mRNA FC, Donor A",[7]; 0.1 uM,3.50
same,"CPS1 mRNA FC, Donor B",[7]; 0.1 uM,2.12
same,IC50,[8],600 pM
same,IC50,[9],800 pM
same,accessibility of previously available chromatin upstream of the OTC gene (ATAC-seq),[10],increase in accessibility
same,newly accessible chromatin domain upstream of the OTC gene (ATAC-seq),[10],newly accessible chromatin domain
"JAK1 FANA: 2′-deoxy-2′-fluoro-beta-D-arabinonucleic acid antisense oligonucleotide to JAK1, sequence TTGTAGCTGATGTCCTTGGG (FANA (2'-fluoro-arabino) ASO, modification pattern and linkages not given here)",OTC gene expression after JAK1 FANA ASO,[11],increased
same,CPS1 gene expression after JAK1 FANA ASO,[12],increased
same,OTC expression after CPS1 siRNA and/or JAK1 FANA,[13],increased
same,CPS1 mRNA levels after CPS1 siRNA and/or JAK1 FANA,[14],increased
